In patent US20090270359A1, “SUBSTITUTED PYRAZOLE DERIVATIVES” (TAKEDA PHARMACEUTICAL COMPANY LIMITED, priority 2007, published 2009):
Where a chain is given by its changes, count along the chain named.

Experiments:
mutant AR (W741C) = target: T1, mutant AR (W741C) (Homo sapiens, UniProt P10275, W742C); test: AR transcription inhibition test (luciferase reporter in Cos-7 cells); assay type: cell-based; settings: compound 1 μM, 0.1 μM DHT, luciferase activity after 24 hr, relative to control (0.1 μM DHT), read-out: Inhibitory rate (%) of mutant AR at 1 μM
T1 construct: expressed in transfected cells; host or cells: Cos-7
T1 sequence (P10275 1-920 W742C): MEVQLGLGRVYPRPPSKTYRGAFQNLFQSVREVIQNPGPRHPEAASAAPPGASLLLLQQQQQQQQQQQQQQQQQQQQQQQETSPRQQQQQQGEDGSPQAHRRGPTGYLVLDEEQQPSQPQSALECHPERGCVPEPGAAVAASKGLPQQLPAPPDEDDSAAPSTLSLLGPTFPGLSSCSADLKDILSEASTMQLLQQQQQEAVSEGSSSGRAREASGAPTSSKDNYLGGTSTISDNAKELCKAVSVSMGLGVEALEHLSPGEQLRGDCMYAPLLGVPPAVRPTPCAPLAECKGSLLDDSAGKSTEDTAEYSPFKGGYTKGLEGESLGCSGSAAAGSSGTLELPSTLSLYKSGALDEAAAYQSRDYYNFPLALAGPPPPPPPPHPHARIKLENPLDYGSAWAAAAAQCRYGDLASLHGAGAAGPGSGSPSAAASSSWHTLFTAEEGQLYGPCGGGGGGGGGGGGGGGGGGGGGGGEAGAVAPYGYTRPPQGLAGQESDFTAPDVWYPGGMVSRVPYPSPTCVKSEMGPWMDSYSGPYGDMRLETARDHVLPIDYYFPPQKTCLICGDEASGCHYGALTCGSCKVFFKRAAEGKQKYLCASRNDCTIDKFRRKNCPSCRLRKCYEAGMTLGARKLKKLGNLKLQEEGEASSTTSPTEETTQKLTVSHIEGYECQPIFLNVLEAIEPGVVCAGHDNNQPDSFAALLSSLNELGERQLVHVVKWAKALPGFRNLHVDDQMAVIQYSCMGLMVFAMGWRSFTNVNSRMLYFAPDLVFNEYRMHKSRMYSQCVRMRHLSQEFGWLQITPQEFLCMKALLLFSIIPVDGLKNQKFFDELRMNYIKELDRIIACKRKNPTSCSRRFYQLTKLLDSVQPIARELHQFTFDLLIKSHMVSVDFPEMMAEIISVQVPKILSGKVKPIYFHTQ
Procedure: Cos-7 cells (5,000,000 cells) were inoculated to a flask, and incubated in a culture medium (DMEM+10% Dextran Charcoal (DCC)−Fetal Bovine Serum (FBS) and 2 mM glutamine) for 24 hours. Then, a vector DNA harboring mutant AR (W741C) and a vector DNA containing a luciferase gene bound at the downstream of an androgen responsive promoter were cotransfected by a liposome method. After 4 hr, the medium was changed and, after culture for 3 hr, DHT (dihydrotestosterone) at the final concentration of 0.1 μM and the compound at the final concentration of 1 μM were added. After further culture for 24 hr, the luciferase activity was measured, and the AR transcription inhibitory activity of the compound was examined.

[1] = target: T2, LNCaP type mutant androgen receptor (AR) (Homo sapiens, UniProt P10275, T878A); test: AR-binding inhibition test, LNCaP type (radio-labeled Mibolerone displacement); settings: compound 1 μM; 3 nM radio-labeled Mibolerone; 4° C., 3 hours; dextran/charcoal method; read-out: Inhibitory rate (%) at 1 μM, LNCaP type
T2 sequence (P10275 1-920 T878A): T1 sequence (P10275 1-920 W742C) with C742W, T878A
Procedure: (§1) To a solution of wild type or LNCaP type mutant androgen receptor (AR) was added 3 nM radio-labeled Mibolerone and final concentration 1 μM of the compound. The mixture was incubated at 4° C. for 3 hours, and B (Bound) and F (Free) Mibolerones were separated by the dextran/charcoal method. The label count of B was measured and the inhibition rate of the compound was calculated.

[2] = target: T3, wild type androgen receptor (AR) (Homo sapiens, UniProt P10275); test: AR-binding inhibition test, wild type (radio-labeled Mibolerone displacement); settings: compound 1 μM; 3 nM radio-labeled Mibolerone; 4° C., 3 hours; dextran/charcoal method; read-out: Inhibitory rate (%) at 1 μM, wild type
T3 sequence (P10275 1-920): T1 sequence (P10275 1-920 W742C) with C742W
Procedure: as §1

[3] = test system: Human prostate cancer cells LNCaP-FGC; test: Prostate specific antigen (PSA) production inhibition test in prostate cancer cells; assay type: cell-based; settings: Homo sapiens, 72 h; compound 1 μM; testosterone 0.1 ng/m; PSA in culture supernatant after 3 days by ELISA; testosterone non-addition group 100%, addition group 0%; read-out: Inhibitory rate (%) at 1 μM (PSA production suppression rate)
Procedure: Human prostate cancer cells LNCaP-FGC were plated in a 24 well plate at 40000 cells/1000 μL/well, and testosterone (final concentration 0.1 ng/m) and the compound (1 μM) were added the next day. The concentration of PSA in the culture supernatant after 3 days from the addition was measured by ELISA, and the PSA production suppression rate was calculated with the testosterone non-addition group as 100% and the testosterone addition group as 0%.

Cc1nn(Cc2ccc(C(=O)NC3CC3)nc2)c(C)c1-c1ccc(C#N)c(Cl)c1 [Example 310, 5-{[4-(3-chloro-4-cyanophenyl)-3,5-dimethyl-1H-pyrazol-1-yl]methyl}-N-cyclopropylpyridine-2-carboxamide]
inhibition at 1 µM (mutant AR (W741C)): 72% | inhibition at 1 µM [1]: 73% | inhibition at 1 µM [2]: 70% | inhibition at 1 µM [3]: 106%
